In patent US12479866B2, “Boron-containing rho kinase inhibitors” (Percipiad, Inc., priority 2019, dated 2025):
“And” between values parts separate entries of the source, which are not always exact repeats. Equal entries are not always repeated.

Columns and labels:
ROCK1 = ROCK1 (Homo sapiens (Human), UniProt Q13464); test: ROCK1 ADP-Glo kinase enzyme inhibition assay; type: biochemical; conditions: read-out: ROCK1 IC50
Procedure: We measured ROCK and PKA kinase enzyme activity inhibition by compounds using commercially available ROCK1 (Promega Corporation, cat #V9581), ROCK2 (Promega, cat #V4045), and PKA kinase (Promega, cat #V4247) ADP-Glo™ assay kits. ADP-Glo™ Kinase Assay is a luminescent ADP detection assay that provides a homogeneous method to measure kinase activity by quantifying the amount of ADP produced during a kinase reaction. The assay is performed in two steps. First, after the kinase reaction, an equal volume of ADP-Glo™ Reagent is added to terminate the kinase reaction and deplete the remaining ATP. Second, the Kinase Detection Reagent is added to simultaneously convert ADP to ATP and allow the newly synthesized ATP to be measured using a luciferase/luciferin reaction. The light generated is measured using a luminometer. A complete protocol is included with the kits and is also available at the Promega website. The assay is briefly described below. • 1. Diluted enzyme, substrate, ATP, and compounds (inhibitors) in Kinase Buffer (40 mM Tris, 7.5, 20 mM MgCl2, 0.1 mg/ml BSA, 50 μM DTT). • 2. Added 1 μl of inhibitor, 2 μl of enzyme and 2 μl of substrate/ATP mix to the wells of 384-well low volume nonbinding assay plate A series of three-fold dilution of inhibitor was prepared and assayed for each inhibitor. • 3. Incubated at room temperature for 60 minutes. • 4. Added 5 μl of ADP-Glo™ Reagent. • 5. Incubated at room temperature for 60 minutes. • 6. Added 10 μl of Kinase Detection Reagent • 7. Incubated at room temperature for 30 minutes.
Recorded luminescence (Integration time 1 second) using a plate-based luminometer.
Calculated Percent Enzyme Activity: First subtract the signal of the negative control (no enzyme and no inhibitor) from each sample's signal. Then use the mean relative light units (RLU) values for the 0% kinase activity (neither inhibitor nor enzyme) and the 100% kinase activity (no compound) to calculate the other percent enzyme activities remaining in the presence of the different dilutions of inhibitor. […]

primary hTM cells = test: CellTox Green cytotoxicity assay in hTM cells; type: cell-based; conditions: 24 h, 48 h, 72 h
From the text: Commercially available RealTime-Glo™ MT cell viability (Promega, catalog #G9712) and CellTox™ Green cytotoxicity (Promega, catalog #G8731) assays were used in assessing effect of compounds on primary hTM cell viability and cytotoxicity. The RealTime-Glo™ MT cell viability assay is a nonlytic, homogeneous, bioluminescent method that determines the number of viable cells in culture by measuring the reducing potential of cells and thus metabolism (MT). Viable cells reduce the proprietary pro-substrate to generate a substrate for NanoLuc® luciferase. This substrate diffuses from cells into the surrounding culture medium, where it is rapidly used by the NanoLuc® Enzyme to produce a luminescent signal. In a contrasting and complementary manner, CellTox™ Green cytotoxicity assay measures changes in membrane integrity that occur as a result of cell death. This assay system uses a proprietary asymmetric cyanine dye that is excluded from viable cells but preferentially stains the dead cells' DNA. […]
Human™ cells were cultured and maintained as described in Example 12. […] Light emitted by luciferase and fluorescence emitted by dye binding to DNA (excitation 485 nm and emission 525 nm) were measured at 24 h, 48 h, and 72 h after incubation using plate based luminescence and fluorescence plate readers.

[1] = Stability in liver microsomes (LC-MS/MS); type: in vitro ADME; conditions: Human liver microsomes; for % Remaining of Initial (n = 1): 1 μM
Procedure: Stability in liver microsomes. Experiment was conducted by Absorption Systems. Mixed-gender human liver microsomes (Lot #1210347) were purchased from XenoTech. The reaction mixture, minus NADPH, was prepared (Liver Microsomes 0.5 mg/mL, NADPH (cofactor) 1 mM, potassium phosphate, pH 7.4, 100 mM, MgCl2, 5 mM). The test article was added into the reaction mixture at a final concentration of 1 μM. The control compound, testosterone, was run simultaneously with the test article in a separate reaction. The reaction mixture (without cofactor) was equilibrated in a shaking water bath at 37° C. for 3 minutes. The reaction was initiated by the addition of the cofactor, and the mixture was incubated in a shaking water bath at 37° C. Aliquots (100 μL) were withdrawn at 0, 10, 20, 30, and 60 minutes. Test article and testosterone samples were immediately combined with 400 μL of ice-cold 50/50 acetonitrile (ACN)/H2O containing 0.1% formic acid and internal standard to terminate the reaction. The samples were then mixed and centrifuged to precipitate proteins. […] The peak area response ratio (PARR) to internal standard was compared to the PARR at time 0 to determine the percent remaining at each time point. Half-lives and clearance were calculated using GraphPad software, fitting to a single-phase exponential decay equation.

CDK2/CyclinE1 = CDK2/CyclinE1 (Homo sapiens (Human), UniProt P24941); test: Kinase Selectivity Profiling General Panel (ADP-Glo); type: biochemical; conditions: 1 μM compound, read-out: Percent enzyme activity inhibition, CDK2/CyclinE1
Procedure: After this incubation, 5 μl of ADP-Glo™ reagent was added to 5 μl reaction and incubated for 40 minutes. Then, 10 μl of Kinase Detection Reagent added to all assay wells in the assay plate and incubated at room temperature for 30 minutes.

[2] = water, thermodynamic from solid
[3] = test system: New Zealand White rabbits; test: Sodium hyaluronate-induced acute ocular hypertension, IOP; type: in vivo, rabbit
From the text: In all studies, male New Zealand White rabbits were acclimatized for one week before the study. Animals were given food and water ad libitum. Body weights of rabbits ranged from 2 to 3 kg. Animals were trained for the IOP measurement procedure during the acclimation period in order to reduce stress and obtaining more accurate measurements during the study. IOP measurements were taken using the Icare® TONOVET Plus tonometer. […] IOP readings are obtained only when the tonometer is held an appropriate distance and in the correct plane relative to the ocular surface. Green light appears when the orientation is correct, thereby minimizing operator errors. Measurements were performed at the same time of day by the same person using the same instrument. Sodium hyaluronate-induced acute ocular hypertension study. Sodium hyaluronate injection into the anterior chamber of rabbit eye creates acute ocular hypertensive status. […] Another group of four animals with elevated IOP received saline only in right eyes. The left eyes of both groups were instilled topically with 30 μl saline eye drop.

Sequence of ROCK1 (Q13464 whole entry): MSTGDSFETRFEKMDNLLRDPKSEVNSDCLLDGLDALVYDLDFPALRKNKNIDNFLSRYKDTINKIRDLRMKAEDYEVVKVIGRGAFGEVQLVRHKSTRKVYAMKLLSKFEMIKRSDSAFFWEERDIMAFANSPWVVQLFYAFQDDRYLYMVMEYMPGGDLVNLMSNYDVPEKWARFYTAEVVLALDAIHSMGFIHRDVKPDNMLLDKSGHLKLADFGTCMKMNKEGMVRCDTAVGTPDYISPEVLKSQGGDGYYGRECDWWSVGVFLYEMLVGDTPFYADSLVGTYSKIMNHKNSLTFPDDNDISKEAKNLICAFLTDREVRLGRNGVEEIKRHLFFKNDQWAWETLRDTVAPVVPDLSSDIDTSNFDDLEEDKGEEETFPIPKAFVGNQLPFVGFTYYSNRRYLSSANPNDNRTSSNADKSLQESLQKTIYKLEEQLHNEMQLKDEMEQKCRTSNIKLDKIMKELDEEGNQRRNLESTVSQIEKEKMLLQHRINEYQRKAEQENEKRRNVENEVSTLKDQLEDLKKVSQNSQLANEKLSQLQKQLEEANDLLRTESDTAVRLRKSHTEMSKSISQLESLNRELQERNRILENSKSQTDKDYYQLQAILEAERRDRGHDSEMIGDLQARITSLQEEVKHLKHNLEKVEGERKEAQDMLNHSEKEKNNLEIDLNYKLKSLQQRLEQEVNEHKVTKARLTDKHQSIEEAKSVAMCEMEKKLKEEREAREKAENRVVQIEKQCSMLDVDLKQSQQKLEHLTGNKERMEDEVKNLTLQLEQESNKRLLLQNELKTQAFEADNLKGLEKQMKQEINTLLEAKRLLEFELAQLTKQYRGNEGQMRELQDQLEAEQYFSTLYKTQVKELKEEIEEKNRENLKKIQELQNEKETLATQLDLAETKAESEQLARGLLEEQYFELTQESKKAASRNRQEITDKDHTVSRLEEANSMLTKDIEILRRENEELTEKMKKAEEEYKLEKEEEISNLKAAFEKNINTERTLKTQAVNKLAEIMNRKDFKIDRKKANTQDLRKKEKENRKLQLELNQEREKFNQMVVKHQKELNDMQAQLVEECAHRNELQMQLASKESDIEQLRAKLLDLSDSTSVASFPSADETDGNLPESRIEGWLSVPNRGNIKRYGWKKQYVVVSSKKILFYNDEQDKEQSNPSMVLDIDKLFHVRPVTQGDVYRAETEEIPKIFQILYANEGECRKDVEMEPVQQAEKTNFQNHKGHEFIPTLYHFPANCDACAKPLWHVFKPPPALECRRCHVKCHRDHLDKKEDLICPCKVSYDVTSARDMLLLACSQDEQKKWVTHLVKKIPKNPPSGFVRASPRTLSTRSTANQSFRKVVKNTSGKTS

Cl.Cl.NCC(C(=O)Nc1ccc2cnccc2c1)c1ccc(B(O)O)cc1 (centres unmarked) [Compound 10•2HCl]
IC50 (ROCK1): 54 nM
Cytotoxicity / membrane integrity (in words) (primary hTM cells): no effect on viability or membrane integrity
% Remaining of Initial (n = 1) ([1]; 0 min): 100%
% Remaining of Initial (n = 1) ([1]; 10 min): 98.0%
% Remaining of Initial (n = 1) ([1]; 20 min): 91.5%
% Remaining of Initial (n = 1) ([1]; 30 min): 89.6%
% Remaining of Initial (n = 1) ([1]; 60 min): 80.8%
half-life at 1 μM ([1]; both sexes, pH 7.4): > 1 h
microsomal CLint at 1 μM ([1]; both sexes, pH 7.4): < 23.1 µL/min/mg
inhibition at 1 µM (CDK2/CyclinE1): 11%
solubility [2]: > 100000 µg/mL and > 234000 µM
Duration of IOP effect ([3]; experiment 1, 1 mg/ml eye drop): 6 h
Effect on IOP compared to saline only group ([3]; experiment 1, 30 μl eye drop in saline (1 mg/ml, 2.34 mM) two hours after hyaluronate injection): decreased IOP significantly within 1 hour after application
Effect on IOP ([3]; experiment 2, compound 10.2HCl 1 mg/ml (2.34 mM), Netarsudil.2HCl 0.25 mg/ml (0.47 mM), 30 μL eye drop): reduced IOP significantly within 1 hour after eye drop application
